US9776972B2, “Pyrazole derivatives as arginine methyltransferase inhibitors and uses thereof” (priority 2013, dated 2017)

Assays:
[1] = biological target: human PRMT8 (Homo sapiens, UniProt Q9NR22); assay: PRMT8 Biochemical Assay (3H-SAM Flashplate, peptide substrate); settings: single experiment or average of multiple experiments
From the text: (§1) S-adenosylmethionine (SAM), S-adenosylhomocysteine (SAH), bicine, Tween20, dimethylsulfoxide (DMSO), bovine skin gelatin (BSG), isopropyl-β-D-thiogalactopyranoside (IPTG), and Tris(2-carboxyethyl)phosphine hydrochloride solution (TCEP) were purchased from Sigma-Aldrich at the highest level of purity possible. ^3H-SAM was purchase from American Radiolabeled Chemicals with a specific activity of 80 Ci/mmol. 384-well streptavidin Flashplates were purchased from PerkinElmer.
Peptide representative of human histone H4 residues 31-45 was synthesized with an N-terminal linker-affinity tag motif and a C-terminal amide cap by 21st Century Biochemicals.
E. coli (BL21(DE3) Gold, Stratagene) made competent by the CaCl2 method were transformed with the PRMT8 construct and ampicillin selection. Protein over-expression was accomplished by growing the PRMT8 expressing E. coli clone and inducing expression with 0.3 mM IPTG at 16° C. The culture was grown for 12 hours, harvested by centrifugation, and stored at −80° C. for purification.
GST-tagged PRMT8 was eluted with 50 mM Tris, 2 mM glutathione, pH 7.8. Pooled fractions were cleaved by thrombin (10 U) and dialysed in buffer A. GST was removed by reloading the cleaved protein sample onto glutathione sepharose column and PRMT8 was collected in the flow-through fractions. PRMT8 was purified further by ceramic hydroxyapatite chromatography. The column was washed with 50 mM phosphate buffer, 100 mM NaCl, 5% glycerol, 5 mM β-mercaptoethanol, pH 7.8 and PRMT8 was eluted by 100 mM phosphate in the same buffer. Protein was concentrated and buffer was exchanged to 50 mM Tris, 300 mM NaCl, 10% glycerol, 5 mM β-mercaptoethanol, pH 7.8 by ultrafiltration.
General Procedure for PRMT8 Enzyme Assays on Peptide Substrates.
(§2) The assays were all performed in a buffer consisting of 20 mM Bicine (pH=7.6), 1 mM TCEP, 0.005% BSG, and 0.002% Tween 20, prepared on the day of use. […] DMSO (1 ul) was added to Columns 11, 12, 23, 24, rows A-H for the maximum signal control and 1 ul of SAH, a known product and inhibitor of PRMT8, was added to columns 11, 12, 23, 24, rows I-P for the minimum signal control. A cocktail (40 ul) containing the PRMT8 enzyme was added by Multidrop Combi (Thermo-Fisher). The compounds were allowed to incubate with PRMT8 for 30 min at room temperature, then a cocktail (10 ul) containing ^3H-SAM and peptide was added to initiate the reaction (final volume=51 ul). […] The assays were stopped by the addition of non-radiolabeled SAM (10 ul) to a final concentration of 400 uM, which dilutes the ^3H-SAM to a level where its incorporation into the peptide substrate is no longer detectable. 50 ul of the reaction in the 384-well polypropylene plate was then transferred to a 384-well Flashplate and the biotinylated peptides were allowed to bind to the streptavidin surface for at least 1 hour before being washed once with 0.1% Tween20 in a Biotek ELx405 plate washer. The plates were then read in a PerkinElmer TopCount plate reader to measure the quantity of ^3H-labeled peptide bound to the Flashplate surface, measured as disintegrations per minute (dpm) or alternatively, referred to as counts per minute (cpm).
(§3) Where dpm=disintegrations per minute, cmpd=signal in assay well, and min and max are the respective minimum and maximum signal controls.
(§4) Where top and bottom are the normally allowed to float, but may be fixed at 100 or 0 respectively in a 3-parameter fit. The Hill Coefficient normally allowed to float but may also be fixed at 1 in a 3-parameter fit. Y is the % inhibition and X is the compound concentration.

[2] = biological target: T1, human PRMT6 (Homo sapiens, UniProt Q96LA8); assay: PRMT6 Biochemical Assay (3H-SAM Flashplate, peptide substrate); settings: Biochemical IC50 PRMT6, single experiment or average of multiple experiments
T1 construct: Flag-PRMT6-His; made in house; host or cells: HEK 293F cells (BacMam baculovirus)
T1 sequence (Q96LA8 with tags, fused parts or gaps): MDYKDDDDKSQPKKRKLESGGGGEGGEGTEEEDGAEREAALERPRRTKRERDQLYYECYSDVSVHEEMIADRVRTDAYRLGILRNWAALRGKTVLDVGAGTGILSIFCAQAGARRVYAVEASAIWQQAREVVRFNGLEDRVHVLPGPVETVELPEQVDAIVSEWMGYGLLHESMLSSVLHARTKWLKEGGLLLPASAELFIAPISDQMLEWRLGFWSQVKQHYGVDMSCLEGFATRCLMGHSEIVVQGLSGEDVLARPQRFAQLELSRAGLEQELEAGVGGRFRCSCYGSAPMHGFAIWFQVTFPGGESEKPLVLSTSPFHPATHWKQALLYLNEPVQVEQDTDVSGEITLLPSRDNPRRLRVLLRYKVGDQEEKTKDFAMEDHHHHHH
From the text: as §1, with “sodium butyrate” for “isopropyl-β-D-thiogalactopyranoside (IPTG),”
Peptide representative of human histone H4 residues 36-50 was synthesized with an N-terminal linker-affinity tag motif and a C-terminal amide cap by 21st Century Biochemicals.
The amplified gene was subcloned into pFastBacMam (Viva Biotech).
Recombinant baculovirus were generated according to Bac-to-Bac kit instructions (Life Technologies). […] Infections were carried out at 37° C. for 48 hours, harvested by centrifugation, and stored at −80° C. for purification.
Column was washed with 20 mM imidazole in the same buffer and Flag-PRMT6-His was eluted with 150 mM imidazole. […] Flag-PRMT6-His was eluted with 200 ug/ml FLAG peptide in the same buffer. Pooled fractions were dialysed in 20 mM Tris, 150 mM NaCl, 10% glycerol and 5 mM β-mercaptoethanol, pH 7.8.
General Procedure for PRMT6 Enzyme Assays on Peptide Substrates.
as §2, with “of PRMT6,” for “of PRMT8,”, “the PRMT6” for “the PRMT8”, “with PRMT6” for “with PRMT8”, “containing SAM” for “containing ^3H-SAM”
as §3, §4

[3] = biological target: T2, human PRMT1 (Homo sapiens, UniProt Q99873); assay: PRMT1 Biochemical Assay (3H-SAM Flashplate, peptide substrate); settings: single experiment or average of multiple experiments
T2 construct: GST-tagged PRMT1; made in house; host or cells: High Five insect cells (baculovirus)
T2 sequence (Q99873 with tags, fused parts or gaps): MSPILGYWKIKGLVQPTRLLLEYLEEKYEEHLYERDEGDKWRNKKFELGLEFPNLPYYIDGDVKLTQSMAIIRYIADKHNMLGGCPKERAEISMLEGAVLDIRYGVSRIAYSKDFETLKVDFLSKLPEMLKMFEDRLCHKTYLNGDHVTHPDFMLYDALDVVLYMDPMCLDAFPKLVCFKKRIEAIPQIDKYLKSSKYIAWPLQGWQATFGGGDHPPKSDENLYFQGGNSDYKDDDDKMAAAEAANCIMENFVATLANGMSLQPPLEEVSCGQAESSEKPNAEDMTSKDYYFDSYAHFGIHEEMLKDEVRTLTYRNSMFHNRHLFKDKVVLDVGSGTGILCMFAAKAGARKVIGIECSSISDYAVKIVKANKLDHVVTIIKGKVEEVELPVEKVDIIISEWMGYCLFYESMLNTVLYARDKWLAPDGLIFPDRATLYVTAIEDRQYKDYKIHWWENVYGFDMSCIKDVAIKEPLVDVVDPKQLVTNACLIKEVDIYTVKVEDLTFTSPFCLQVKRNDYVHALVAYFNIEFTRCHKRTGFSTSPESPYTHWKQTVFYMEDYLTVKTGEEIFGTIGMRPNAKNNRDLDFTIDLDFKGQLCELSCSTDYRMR
From the text: as §1, with “(BSG),” for “(BSG), isopropyl-β-D-thiogalactopyranoside (IPTG),”
Recombinant baculovirus were generated according to Bac-to-Bac kit instructions (Life Technologies). […] Infections were carried out at 27° C. for 48 hours, harvested by centrifugation, and stored at −80° C. for purification.
GST-tagged PRMT1 was eluted with 50 mM Tris, 2 mM glutathione, pH 7.8, dialysed in buffer A and concentrated to 1 mg/mL.
General Procedure for PRMT1 Enzyme Assays on Peptide Substrates.
as §2, with “of PRMT1,” for “of PRMT8,”, “the PRMT1” for “the PRMT8”, “with PRMT1” for “with PRMT8”, “containing SAM” for “containing ^3H-SAM”, “of 300” for “of 400”
as §3, §4

Chain of human PRMT8 (Q9NR22 whole entry): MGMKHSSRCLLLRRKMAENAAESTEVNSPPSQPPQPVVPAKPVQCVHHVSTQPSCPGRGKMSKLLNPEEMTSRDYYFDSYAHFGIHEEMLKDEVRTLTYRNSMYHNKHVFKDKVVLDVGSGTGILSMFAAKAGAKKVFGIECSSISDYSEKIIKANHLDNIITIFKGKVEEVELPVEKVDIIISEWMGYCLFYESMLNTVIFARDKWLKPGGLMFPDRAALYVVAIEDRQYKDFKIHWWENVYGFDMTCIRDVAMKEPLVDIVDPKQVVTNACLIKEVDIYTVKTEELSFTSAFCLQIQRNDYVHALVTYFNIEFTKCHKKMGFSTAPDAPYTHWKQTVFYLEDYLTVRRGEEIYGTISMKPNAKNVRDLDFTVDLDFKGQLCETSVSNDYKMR

Structure (SMILES) | IC50 [1] | IC50 [2] | IC50 [3]
CNCCN(C)Cc1c[nH]nc1-c1ccccc1Oc1ccccc1 [Compound 36] | 22.4 µM | 2440 nM | –
CNCCN(C)Cc1c[nH]nc1-c1ccccc1OC(F)(F)F [Compound 40] | 6.76 µM | 680 nM | 700 nM
CNCCN(C)Cc1c[nH]nc1-c1cc(Cl)ccc1OC [Compound 53] | 12.8 µM | 968 nM | 3160 nM
CNCCN(C)Cc1c[nH]nc1-c1cccc(OC)c1OC [Compound 54] | 7.5 µM | 182 nM | 569 nM
CCNCCN(C)Cc1c[nH]nc1-c1ccc(F)cc1 [Compound 60] | 1.54 µM | 53.2 nM | 170 nM

Continued, values first:

IC50 [1] | IC50 [2] | IC50 [3] | Structure (SMILES)
3.11 µM | 49.8 nM | 336 nM | CN(CCN)Cc1c[nH]nc1-c1cc(F)ccc1Cl [Compound 106]
8.52 µM | 594 nM | 1490 nM | CN(CCN)Cc1cnn(CC(O)CO)c1-c1ccc(F)cc1 (centres unmarked) [Compound 113]
5.79 µM | 20.5 nM | 648 nM | CC(C)CC(=O)N1CCN(c2ccc(-c3n[nH]cc3CN(C)CCN)cc2)CC1 [Compound 180]
4.82 µM | 260 nM | 2420 nM | CN(CCNC1CC1)Cc1c[nH]nc1-c1ccc(C#N)cc1 [Compound 183]
